What all share (type): cell-based
One assay relates to Hafnia alvei. Put plainly: MIC by agar dilution (NCCLS M7-A4), 288 enteropathogenic isolates, eight quinolones. The note with it: Hafnia alvei (n = 32). On the technique in general: In agar dilution, organisms are placed on agar that contains the substance at set levels.
For another assay, the system named is Shigella spp. The assay is described as above. The note with it: Shigella spp. (n = 21).
Another assay concerns Salmonella spp. The description is as above. The note with it: for MIC: ciprofloxacin MIC ≥[…], read-out: MIC.
The next assay concerns Campylobacter jejuni. As to the kind of experiment: MIC by agar dilution (NCCLS M7-A4), 5% sheep blood, microaerophilic 48 h. The conditions noted are these: Campylobacter jejuni (n=91).
The next assay concerns Escherichia coli. Put plainly: MIC by agar dilution (NCCLS), 322 nosocomial Gram negative isolates, Athens 1998. The note with it: Escherichia coli; n = 57 isolates.
Assay [1] deals with Mycobacterium tuberculosis (MTB). As to the kind of experiment: MIC by proportions method (NCCLS M24-T, 1995), 82 MTB strains. The note with it: Mycobacterium tuberculosis; 82 MTB strains.

Each structure is given as a SMILES string. ≈ marks a conversion by molar mass, not a printed value. Where two headings read alike, the source gives them in different places.

For the molecule `Cc1c(F)c(N2CCNC(C)C2)cc2c1c(=O)c(C(=O)O)cn2C1CC1` (centres unmarked) [Grepafloxacin, grepafloxacin], the “% Susceptible” value with Hafnia alvei was found to be 100%; in the assay with Shigella spp., 100%; in the assay on Salmonella spp. (Salmonella spp. (n = 106)) it was 99%; in the assay with Campylobacter jejuni, 31.86%. Besides, the MIC50 with Hafnia alvei is 0.03 µg/mL (≈ 0.0835 µM); against Shigella spp. it was not above 0.015 µg/mL; in the assay on Salmonella spp. (Salmonella spp. (n = 106)), 0.06 µg/mL (≈ 0.167 µM); against Campylobacter jejuni it was 32 µg/mL (≈ 89 µM); with Escherichia coli it was 0.06 µg/mL (≈ 0.167 µM). The MIC90 in the assay with Hafnia alvei is 0.06 µg/mL (≈ 0.167 µM); with Shigella spp., 0.03 µg/mL (≈ 0.0835 µM); in the assay on Salmonella spp. (Salmonella spp. (n = 106)), 0.25 µg/mL (≈ 0.696 µM); in the assay with Campylobacter jejuni, 64 µg/mL (≈ 178 µM); against Escherichia coli, 0.25 µg/mL (≈ 0.696 µM); in assay [1], 2 µg/mL (≈ 5.56 µM). Also, the “MIC Range” value is not above 0.015 to 0.06 µg/mL against Hafnia alvei, not above 0.015 to 0.03 µg/mL with Shigella spp., 0.03 to 2 µg/mL against Salmonella spp. (Salmonella spp. (n = 106)) and 0.03 to 128 µg/mL with Campylobacter jejuni. For the same molecule, the MIC in the assay on Salmonella spp. (S. hadar (n = 2)) was determined as 1 µg/mL (≈ 2.78 µM); with Salmonella spp. (S. newport (n = 1)), 1 µg/mL (≈ 2.78 µM); in the assay with Salmonella spp. (S. virchow (n = 2)), 0.25 µg/mL (≈ 0.696 µM); with Salmonella spp. (Salmonella, S. tshiongwe (n = 1)), 2 µg/mL (≈ 5.56 µM).

In general, MIC50 refers to an inhibitory concentration at the 50% level, which refers to growth in some studies and to a panel of isolates in others. Low readings indicate higher susceptibility, high ones lower susceptibility. A word on the MIC90: it is the lowest concentration that inhibits either 90% of growth or 90% of the strains tested, depending on the study. As a reminder, the MIC is the lowest concentration that inhibits growth of the organism.

Source of the values: patent EP1561465A2, “Methods of use of fluoroquinolone compounds against bacteria” (LG Life Sciences, Ltd., priority 1999, dated 2001).
